Assay results from PubChem BioAssay AID179 (DTP/NCI, 2004).
Several values for one entry are separate records, joined by “and”; a condition that tells them apart may be missing. Equal entries are not always repeated. Activity calls are given as the source filed them.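 Rule for the calls: active = compounds giving half or more protection of infected cells from virus-caused growth loss, again on retest; inactive = the rest.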

Tested on: CEM cells HIV-1 protection, formazan growth assay
Assay: NCI AIDS Antiviral Assay
Conditions: for IC50: measured here: growth of uninfected CEM cells
Method in brief: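 Protection of CEM cells against HIV-1 measured as cell growth via soluble formazan read-out, with five concentrations tested on both infected and uninfected cells; failure to protect may reflect toxicity.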

Row | SMILES | EC50 [µM] | IC50 | outcome
1 | O=C(O)C1OC(n2cc([N+](=O)[O-])c(=O)[nH]c2=O)C(O)C1O (centres undefined) | > 200 | > 200 µM | –
2 | N[C@H](CSSC[C@@H](N)C(=O)Nc1ccc2ccccc2c1)C(=O)Nc1ccc2ccccc2c1 | > 200 | 2.75 µM and 3.55 µM | –
3 | COC(=O)[C@@H](COC(=O)/C=C/c1ccc(OC(C)=O)c(OC(C)=O)c1)NC(=O)/C=C/c1ccc(OC(C)=O)c(OC(C)=O)c1 | > 100 | 19.1 µM | –
4 | C(=Nc1cnc2ccccc2c1)c1ccncc1 | > 288 | 66.1 µM | –
5 | Cc1ccc(Sc2ccc(C)cc2[N+](=O)[O-])c([N+](=O)[O-])c1 | > 97.7 | > 97.7 µM | –
6 | Cc1cc(N(CCC#N)CCC#N)ccc1/C(N=Nc1ccccc1)=N\NC(=O)c1cc(Cl)ccc1O | > 200 | 28.8 µM | –
7 | CC12CCC([C@H](Nc3cc(C(F)(F)F)cc(C(F)(F)F)c3)C1=O)C2(C)C (some centres undefined) | > 20 | > 20 µM | –
8 | S=C1CNC(=S)CN1 | – | – | inactive
9 | COc1cc2c(cc1OC)C13CC[N+]4(C)CC5CCOC6CCN2C1C6C5CC34 (centres undefined) | > 479 | 66.1 µM | –
10 | CO[C@@H]1C[C@H]2[C@@H]3CC[C@H]([C@H](C)CO)[C@@]3(C)CC[C@@H]2[C@@]2(C)CC[C@H]3C[C@]312 | > 174 | 81.3 µM | –
11 | Cc1ccc2oc(=O)c(C#N)c(/C=C\c3ccccc3O)c2c1 | > 100 | 5.62 µM | –
12 | Nc1nc(Cl)cc(NCC2CC(O)(CO)C2)n1 (centres undefined) | > 200 | > 200 µM | –
13 | O=c1c2cc3c(=O)n(CCc4ccccc4CO)c(=O)c3cc2c(=O)n1CCc1ccccc1CO | > 10.7 | > 10.7 µM | –
14 | CCOC(=O)C1=CNN=CC12C(=O)C(C(=O)OCC)CC2C(=O)OCC (centres undefined) | > 245 | > 245 µM | –
15 | CCCCNc1nc2ccccc2c2c1ncn2CC(C)C | > 200 | 20 µM | –
16 | Nc1ccccc1Sc1ccc(Cl)cc1 | – | – | inactive
17 | Clc1ccc(Nc2nn3c(CCCCCCCCc4nnc5sc(Nc6ccc(Cl)cc6)nn45)nnc3s2)cc1 | > 200 | 112 µM | –
18 | CC(C)(Oc1ccc(C(=O)c2ccc(Cl)cc2)cc1Cl)C(=O)N1CCN(CCO)CC1 | > 200 | 4.47 µM | –
19 | COc1cc(OC)c2c(c1)C(=O)c1cccc(O)c1C2=O | – | – | inactive
20 | COC(=O)/C=C(C)/C=C/c1c(C)c(C(C)=O)c(C)n1C | > 129 | > 129 µM | –

Row | SMILES | EC50 [µM] | IC50 | outcome
21 | CC(=O)Oc1ccc2ccccc2c1Br | > 200 | 112 µM | –
22 | CCc1c(O)c2c(c(O)c1C(C)=O)C(=O)c1c(cc(O)c(C(=O)O)c1C(=O)O)C2=O | > 33.1 | > 33.1 µM | –
23 | CN(CC(=O)O)S(=O)(=O)c1ccc(Cl)cc1 | – | – | inactive
24 | O=[N+]([O-])c1ccc2ncccc2c1CCc1c([N+](=O)[O-])ccc2ncccc12 | – | – | inactive
25 | CSCCC(NC(=O)Cc1ccc(C(=O)c2ccccc2)cc1)C(=O)N1CCN(CCCCN2c3ccccc3Sc3cc(N=[N+]=[N-])ccc32)CC1 (centres undefined) | > 200 | 33.1 µM | –
26 | CCCCCCCCCCCCOC(=N)N1CCOCC1 | > 91.2 | 4.47 µM | –
27 | O=C(O)C1CC2=C(CN1)Cc1ccccc12 (centres undefined) | > 9.33 | > 9.33 µM | –
28 | CCCCCOC(=O)C(=O)Nc1n[nH]nc1C(N)=O | > 200 | > 200 µM | –
29 | COc1c(NS(=O)(=O)c2ccccc2)cc2c3c(cccc13)/C(=C1\Cc3cccc4c(OC)c(NS(=O)(=O)c5ccccc5)cc1c34)C2 | > 200 | 132 µM | –
30 | O=c1n(-c2ccccc2)c(=O)n2n1C1C3C4C3C2C2(F)C4C12 (centres undefined) | > 200 | > 200 µM | –
31 | CN(C)c1nc(Oc2nc(N(C)C)nc(N(C)C)n2)nc(N(C)C)n1 | > 724 | 17.4 µM | –
32 | C=C(Cn1cnc2c(N)ncnc21)C(=O)OCC | – | – | inactive
33 | CCOC(O)(NC(=O)C(C(F)(F)F)C(F)(F)F)C(F)(F)F (centres undefined) | > 200 | > 200 µM | –
34 | Nc1ccc([N+](=O)[O-])c(S(=O)(=O)O)c1 | > 1150 | > 1150 µM | –
35 | O=C(O)c1c(O)ccc(O)c1C(=O)Nc1ccc(/C=C/c2ccc(NC(=O)c3c(O)ccc(O)c3C(=O)O)cc2S(=O)(=O)O)c(S(=O)(=O)O)c1 | 17.8 | > 200 µM | –
36 | CCCCCCCCCCCCNS(=O)(=O)c1ccc(-c2c3nc(c(-c4ccc(S(=O)(=O)NCCCCCCCCCCCC)cc4)c4ccc([nH]4)c(-c4ccc(S(=O)(=O)NCCCCCCCCCCCC)cc4)c4nc(c(-c5ccc(S(=O)(=O)NCCCCCCCCCCCC)cc5)c5ccc2[nH]5)C=C4)C=C3)cc1 | > 100 | > 100 µM | –
37 | Cn1c(=O)oc2cc(C(O)CN3CCN(Cc4ccccn4)CC3)c(Cl)cc21 (centres undefined) | > 200 | 195 µM | –
38 | CCOC(=O)C1CC(C(=O)OCC)c2nc3ccccc3nc21 (centres undefined) | > 8.71 | > 8.71 µM | –
39 | COc1cc(O)c(C(=O)c2ccccc2)cc1S(=O)(=O)O | > 776 | > 776 µM | –
40 | CC(C)(C)CC(C)(C)c1cc2c(O)c(c1)Cc1cc(C(C)(C)CC(C)(C)C)cc(c1O)Cc1cc(C(C)(C)CC(C)(C)C)cc(c1O)Cc1cc(C(C)(C)CC(C)(C)C)cc(c1O)Cc1cc(C(C)(C)CC(C)(C)C)cc(c1O)Cc1cc(C(C)(C)CC(C)(C)C)cc(c1O)Cc1cc(C(C)(C)CC(C)(C)C)cc(c1O)Cc1cc(C(C)(C)CC(C)(C)C)cc(c1O)C2 | > 2.04 | > 2.04 µM | –

Row | SMILES | EC50 [µM] | IC50 | outcome
41 | O=C1CC2(CCNCC2)C(=O)N1N1CCCCC1 | > 200 | > 200 µM | –
42 | CNc1cc(Cl)ccc1C(=O)N1CCC[C@H]1CO | > 200 | 191 µM | –
43 | Cc1ccc2c(c1)CC1(Cc3cc(C)ccc3C1=O)C2=O | > 200 | > 200 µM | –
44 | CN(C)CCn1c(=O)nc2c3c(c([N+](=O)[O-])ccc31)Nc1ccc(O)cc1-2 | > 2 | 1.95 µM | –
45 | Clc1cc(Cl)cc(C=NC23CC4CC(CC(C4)C2)C3)c1 | > 200 | 44.7 µM | –
46 | Cn1c2ccc([N+](=O)[O-])cc2c(=O)c2c(O)cc(O)cc21 | > 200 | 19.1 µM | –
47 | Nc1nc2cnc(COc3ccccc3)nc2c(=O)[nH]1 | > 200 | > 200 µM | –
48 | C=C(c1ccccc1)C1ON(C)CCc2cc(OC)c(OC)cc21 (centres undefined) | > 200 | > 100 µM | –
49 | NNC(=O)CC(=O)Nc1ccccc1F | > 1170 | 871 µM | –
50 | CCC(=O)NC(Nc1ccccc1F)(C(F)(F)F)C(F)(F)F | > 200 | > 200 µM | –
51 | CCOC(=O)Nc1ccc2nc(N3CCCCC3)sc2c1 | > 85.1 | 6.31 µM | –
52 | CCc1c(-c2ccc(OC)cc2)oc(OC)c(C)c1=O | > 200 | 40.7 µM | –
53 | COc1cc(C=O)c(-c2cc3c(cc2C2(C)OCCS2)OCO3)c(OC)c1OC (centres undefined) | > 44.7 | 2.51 µM | –
54 | CN1CCN(CCSc2nccc(-c3cc4ccccc4s3)n2)CC1 | > 126 | 31.6 µM | –
55 | COC(=O)C1=NOC2C(=O)N(c3ccccc3)C(=O)C12 (centres undefined) | > 200 | > 200 µM | –
56 | O=C(O)CCCCSCCCCC(=O)O | > 1070 | > 1070 µM | –
57 | COC(=O)C1=Nc2c(C)nn(-c3ccccc3)c2N=C(c2ccc([N+](=O)[O-])cc2)C1 | > 200 | > 200 µM | –
58 | N#CC(=N)c1ncn(-c2ccccc2N)c1N | > 200 | > 200 µM | –
59 | Cn1c(=O)n2n(c1=O)C(C)(C13CC4CC(CC(C4)C1)C3)C13CC4CC(CC1C4)CC23 (centres undefined) | > 100 | > 100 µM | –
60 | O=C(O)CN1C(=O)CN=C(c2ccccn2)c2cc(Cl)ccc21 | > 759 | > 759 µM | –
